Test results published in BindingDB's records for doi:10.1021/acs.jmedchem.7b00359 (AstraZeneca, 2017).

Key:
[1] = molecular target: T1, Zinc finger and BTB domain-containing protein 16 (Homo sapiens, UniProt Q05516); assay: (§1) Inhibition of GAL4 DNA binding domain fused PLZF BTB domain (unknown origin) expressed in HEK 293T/17 cells after 24 hrs by Bright-Glo luciferase cell reporter assay
T1 sequence (Q05516 whole entry): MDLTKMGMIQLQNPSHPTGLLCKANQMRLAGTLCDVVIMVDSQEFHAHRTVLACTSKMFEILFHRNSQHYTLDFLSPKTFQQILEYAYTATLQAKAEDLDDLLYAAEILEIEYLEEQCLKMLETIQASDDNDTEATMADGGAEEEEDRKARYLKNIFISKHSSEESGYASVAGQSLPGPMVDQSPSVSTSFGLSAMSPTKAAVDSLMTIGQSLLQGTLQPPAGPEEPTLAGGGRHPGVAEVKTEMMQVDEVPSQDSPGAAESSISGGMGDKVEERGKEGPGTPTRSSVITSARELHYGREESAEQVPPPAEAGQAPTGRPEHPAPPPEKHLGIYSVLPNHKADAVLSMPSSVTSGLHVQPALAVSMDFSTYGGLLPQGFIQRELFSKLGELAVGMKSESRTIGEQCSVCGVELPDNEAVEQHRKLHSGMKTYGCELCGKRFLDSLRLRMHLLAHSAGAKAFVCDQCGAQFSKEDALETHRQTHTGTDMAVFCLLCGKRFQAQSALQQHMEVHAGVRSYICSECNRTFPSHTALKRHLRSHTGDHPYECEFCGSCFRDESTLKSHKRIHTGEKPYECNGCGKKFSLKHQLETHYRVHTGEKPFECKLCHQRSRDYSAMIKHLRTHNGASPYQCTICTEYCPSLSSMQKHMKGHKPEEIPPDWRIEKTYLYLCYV

[2] = molecular target: T1, Zinc finger and BTB domain-containing protein 16; assay: ChEBML_1665992; source text: as §1

With `CN1C(=O)CCc2cc3cc(c21)OC/C=C/CO[C@H]1C[C@@H](CO)N(C1)c1cc(n2ncc(Cl)c2n1)N3` the IC50 [1] was > 30 µM.
For `O=C1CCc2cc3cc(c2N1)OCCCCO[C@H]1C[C@@H](CO)N(C1)c1cc(n2ncc(Cl)c2n1)N3`, the IC50 [1] was > 30 µM.
With `O=C1CCc2cc3cc(c2N1Cc1ccncc1)OC/C=C/CO[C@H]1C[C@@H](CO)N(C1)c1cc(n2ncc(Cl)c2n1)N3` the IC50 [1] was > 30 µM.
In the case of `O=C1CCc2cc3cc(c2N1)OC/C=C/CO[C@H]1C[C@@H](CO)N(C1)c1cc(n2ncc(Cl)c2n1)N3`, the IC50 [1] is reported as > 30 µM.
For `O=C1CCc2cc3cc(c2N1CC1CC(F)(F)C1)OC/C=C/CO[C@H]1C[C@@H](CO)N(C1)c1cc(n2ncc(Cl)c2n1)N3`, the IC50 [1] was > 30 µM.
In the case of `O=C(O)C[C@@H]1C[C@H]2CN1c1cc(n3ncc(Cl)c3n1)Nc1cc3c(c(c1)OC/C=C/CO2)N(CC1CC(F)(F)C1)C(=O)CC3`, the IC50 [1] is reported as > 30 µM.
In the case of `O=C1CCc2cc3cc(c2N1CCCN1CCOCC1)OC/C=C/CO[C@H]1C[C@@H](CO)N(C1)c1cc(n2ncc(Cl)c2n1)N3`, the IC50 [1] is reported as > 30 µM.
For `O=C1CCc2cc3cc(c2N1CC1CC1)OC/C=C/CO[C@H]1C[C@@H](CO)N(C1)c1cc(n2ncc(Cl)c2n1)N3`, the IC50 [1] was > 30 µM.
`O=C1CCc2cc3cc(c2N1)OCCCCO[C@H]1C[C@@H](CO)N(C1)c1cc(n2nccc2n1)N3` was tested, and the IC50 [1] was > 30 µM.
For `O=C1CCc2cc3cc(c2N1Cc1ccccc1)OC/C=C/CO[C@H]1C[C@@H](CO)N(C1)c1cc(n2ncc(Cl)c2n1)N3`, the IC50 [1] was > 30 µM.
In the case of `COc1cccc(CN2C(=O)CCc3cc4cc(c32)OC/C=C/CO[C@H]2C[C@@H](CO)N(C2)c2cc(n3ncc(Cl)c3n2)N4)c1`, the IC50 [1] is reported as > 30 µM.
With `COc1cccc(CN2C(=O)CCc3cc4cc(c32)OC/C=C/CO[C@H]2C[C@@H](CO)N(C2)c2cc(n3ncc(C#N)c3n2)N4)c1` the IC50 [1] was > 30 µM.
In the case of `N#Cc1cnn2c3cc(nc12)N1CC[C@@H](C1)OCCCCOc1cc(cc2c1NC(=O)CC2)N3`, the IC50 [1] is reported as > 30 µM.
In the case of `N#Cc1cnn2c3cc(nc12)N1C[C@H](C[C@H]1CO)OCCCCOc1cc(cc2c1NC(=O)CC2)N3`, the IC50 [1] is reported as > 30 µM.
`Cc1ccccc1CN1C(=O)CCc2cc3cc(c21)OC/C=C/CO[C@H]1C[C@@H](CO)N(C1)c1cc(n2ncc(Cl)c2n1)N3` was tested, and the IC50 [1] was > 30 µM.
In the case of `Cc1ccc(CN2C(=O)CCc3cc4cc(c32)OC/C=C/CO[C@H]2C[C@@H](CO)N(C2)c2cc(n3ncc(Cl)c3n2)N4)cc1`, the IC50 [1] is reported as > 30 µM.
For `N#Cc1cnn2c3cc(nc12)N1C[C@H](C[C@H]1CO)OC/C=C/COc1cc(cc2c1NC(=O)CC2)N3`, the IC50 [2] was > 30 µM.
